Data taken from patent US20130315982A1, “LIPOSOMAL DRUG COMPOSITION CONTAINING A POLYMERIC GUANIDINE DERIVATIVE” (MINDINVEST HOLDINGS LTD., priority 2010, published 2013).

Tested on: tumor cells
Assay: Resistance study with 30 passages
Type: cell-based
Description: It has been shown that the problem can be solved by encapsulation of the polymeric guanidine derivate in PEGylated liposomes, which ensures that the drug substance reaches its target in higher concentrations, e.g. the malignant tumor cells. […] The commonly known cytostatics induce such cellular resistance mechanisms requiring higher, toxic doses, which cause severe side effects.

Substance: poly-[2-(2-ethoxyethoxyethyl)guanidinium hydrochloride] [API]
- reduction of activity (induction of resistance): no reduction of activity
